Patent US10912771B1, “Methods for the administration of certain VMAT2 inhibitors” (Neurocrine Biosciences, Inc., priority 2017, dated 2021)
Entries after “also recorded” stand apart in the source; their conditions may differ. Read-outs that look alike come from different tables or passages of the source.

Columns and labels:
[1] = target: T1, human VMAT1 transporter (Homo sapiens, UniProt P54219); experiment: Uptake in cells expressing VMAT1; assay type: cell-based; conditions: TBZ, VBZ and metabolites at concentrations up to 10 μM
T1 construct: expressed in transfected cells
T1 sequence (P54219 1-525): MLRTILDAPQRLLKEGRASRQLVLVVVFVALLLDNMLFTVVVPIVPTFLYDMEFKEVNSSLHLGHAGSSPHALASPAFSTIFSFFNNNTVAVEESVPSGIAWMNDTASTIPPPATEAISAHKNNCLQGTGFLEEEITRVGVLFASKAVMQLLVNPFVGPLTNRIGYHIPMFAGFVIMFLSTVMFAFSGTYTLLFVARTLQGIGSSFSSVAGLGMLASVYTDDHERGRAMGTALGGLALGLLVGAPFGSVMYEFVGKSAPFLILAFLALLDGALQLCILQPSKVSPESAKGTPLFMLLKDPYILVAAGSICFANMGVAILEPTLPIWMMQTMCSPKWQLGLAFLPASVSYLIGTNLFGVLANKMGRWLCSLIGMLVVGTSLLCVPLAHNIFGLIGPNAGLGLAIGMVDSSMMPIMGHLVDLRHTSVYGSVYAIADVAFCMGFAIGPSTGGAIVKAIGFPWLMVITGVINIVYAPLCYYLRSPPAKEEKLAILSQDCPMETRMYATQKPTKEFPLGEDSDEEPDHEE

[2] = Prolactin release, in vivo surrogate for dopaminergic modulation
[3] = Phase 1 open-label one-sequence crossover drug-interaction study: plasma pharmacokinetics of NBI-98854 and metabolites with and without rifampin; assay type: in vivo, human; conditions: for half-life: read-out: Mean t1/2 (converted)
Description: (§1) Subjects received a single dose of 80 mg valbenazine tosylate on Days 1 and 11 between 0800 and 1000 hours. In addition, subjects received 600 mg rifampin (300 mg×2 capsules) once daily on Days 5 (after collection of the 96-hour PK sample) through 14 between 0830 and 1030 hours. Subjects were required to fast overnight before receiving the study drugs (valbenazine tosylate and rifampin). Subjects were discharged from the study center on Day 15 (final study day or upon early termination) after all safety evaluations and study assessments had been completed.
Safety was assessed throughout the study.
NBI-98854 40 mg capsules were administered orally. The dose of NBI-98854 was based on ditosylate salt (dose expressed as free base). Subjects received a single dose of NBI-98854 80 mg (as two 40 mg capsules) twice during the study, on Days 1 and 11.
Rifampin 300 mg capsules were administered orally. Subjects received a single dose of rifampin 600 mg (as two 300 mg capsules) on Days 5 (after collection of the 96 hour NBI-98854 PK sample) through 14 between 0830 and 1030 hours.
The following plasma PK parameters were calculated only for NBI-98854: • Apparent systemic clearance after oral administration (CL/F) • Apparent volume of distribution during the terminal phase after oral administration (Vz/F)
The last significant figure was rounded up if the digit to the right of it was >5, and was rounded down if the digit to the right of it was […].
The last significant figure was rounded up if the digit to the right of it was ≥5, and was rounded down if the digit to the right of it was ≤4.
(§2) An analysis of variance (ANOVA) model was used to compare AUC0-∞ and Cmax for NBI-98854 administered with rifampin (“test”) versus AUC0-∞ and Cmax for NBI-98854 alone (“reference”). The PK parameters for metabolites of NBI-98854 and rifampin were also evaluated. Safety data were summarized using descriptive statistics.

[4] = target: Serotonin 5-HT7 (Homo sapiens, UniProt P34969); experiment: Cerep screen, Serotonin 5-HT7; conditions: 1 or 10 μM final concentration; n=2
Serotonin 5-HT7, sequence (P34969 whole entry): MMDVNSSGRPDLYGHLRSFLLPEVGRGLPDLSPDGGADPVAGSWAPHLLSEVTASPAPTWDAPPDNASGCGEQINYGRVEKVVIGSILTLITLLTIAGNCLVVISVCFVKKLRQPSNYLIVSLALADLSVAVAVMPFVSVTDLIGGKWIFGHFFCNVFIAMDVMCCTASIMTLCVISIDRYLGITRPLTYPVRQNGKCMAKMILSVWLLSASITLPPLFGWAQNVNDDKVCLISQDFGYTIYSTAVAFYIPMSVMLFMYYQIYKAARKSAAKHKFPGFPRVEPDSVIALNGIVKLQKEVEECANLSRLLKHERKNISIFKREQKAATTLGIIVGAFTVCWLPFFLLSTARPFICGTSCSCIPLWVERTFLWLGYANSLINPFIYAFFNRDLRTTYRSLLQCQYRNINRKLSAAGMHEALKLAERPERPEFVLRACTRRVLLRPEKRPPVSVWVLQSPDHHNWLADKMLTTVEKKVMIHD

[5] = target: T2, Serotonin 5-HT1A (Homo sapiens, UniProt P08908); experiment: Cerep screen, Serotonin 5-HT1A; conditions: 1 or 10 μM final concentration; n=2
T2 sequence (P08908 1-422): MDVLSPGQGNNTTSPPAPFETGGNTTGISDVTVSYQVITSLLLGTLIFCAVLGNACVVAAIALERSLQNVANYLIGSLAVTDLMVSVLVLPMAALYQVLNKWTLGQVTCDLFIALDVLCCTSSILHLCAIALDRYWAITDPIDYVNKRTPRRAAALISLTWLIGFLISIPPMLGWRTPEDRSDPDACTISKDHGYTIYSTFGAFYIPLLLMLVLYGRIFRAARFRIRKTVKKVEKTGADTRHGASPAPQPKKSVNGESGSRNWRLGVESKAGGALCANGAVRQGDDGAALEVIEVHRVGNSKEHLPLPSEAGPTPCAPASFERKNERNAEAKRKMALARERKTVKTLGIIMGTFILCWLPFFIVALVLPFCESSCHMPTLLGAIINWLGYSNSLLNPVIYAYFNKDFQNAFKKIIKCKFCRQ

[6] = system: CYP enzymes; conditions: human
[7] = system: more than 80 targets (GPCRs, cell-surface monoamine transporters, ion channels including HERG); experiment: Cerep multi-target activity screen; conditions: receptors, monoamine transporters, and ion channels
[8] = Ptosis, in vivo surrogate measure of pharmacological effect
[9] = Phase 1 drug-interaction study: safety, treatment-emergent adverse events; assay type: in vivo, human
Description: as §1, §2

[10] = target: T3, VMAT2 (Homo sapiens, UniProt Q05940); experiment: Inhibition of [3H]-DHTBZ binding to human platelets
T3 construct: from tissue; host or cells: human platelets (homogenates)
T3 sequence (Q05940 whole entry): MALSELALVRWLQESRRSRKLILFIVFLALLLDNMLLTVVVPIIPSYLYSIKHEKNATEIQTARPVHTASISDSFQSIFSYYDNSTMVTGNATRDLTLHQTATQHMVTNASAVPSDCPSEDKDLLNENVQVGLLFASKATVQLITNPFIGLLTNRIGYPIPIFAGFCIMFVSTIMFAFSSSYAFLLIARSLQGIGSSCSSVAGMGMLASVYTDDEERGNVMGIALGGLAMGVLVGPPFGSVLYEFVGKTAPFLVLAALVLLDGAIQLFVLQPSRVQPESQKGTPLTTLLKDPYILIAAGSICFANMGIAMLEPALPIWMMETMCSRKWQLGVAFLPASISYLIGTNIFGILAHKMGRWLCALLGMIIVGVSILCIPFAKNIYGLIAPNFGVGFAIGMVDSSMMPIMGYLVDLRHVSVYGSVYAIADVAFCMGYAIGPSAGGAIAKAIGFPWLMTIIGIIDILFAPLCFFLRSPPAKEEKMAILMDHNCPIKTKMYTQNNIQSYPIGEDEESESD

[11] = target: Dopamine D2(s) (Homo sapiens, UniProt P14416); experiment: Cerep screen, Dopamine D2(s); conditions: radioligand binding assays and broad panel screen
Dopamine D2(s), sequence (P14416 1-414 isoform P14416-2): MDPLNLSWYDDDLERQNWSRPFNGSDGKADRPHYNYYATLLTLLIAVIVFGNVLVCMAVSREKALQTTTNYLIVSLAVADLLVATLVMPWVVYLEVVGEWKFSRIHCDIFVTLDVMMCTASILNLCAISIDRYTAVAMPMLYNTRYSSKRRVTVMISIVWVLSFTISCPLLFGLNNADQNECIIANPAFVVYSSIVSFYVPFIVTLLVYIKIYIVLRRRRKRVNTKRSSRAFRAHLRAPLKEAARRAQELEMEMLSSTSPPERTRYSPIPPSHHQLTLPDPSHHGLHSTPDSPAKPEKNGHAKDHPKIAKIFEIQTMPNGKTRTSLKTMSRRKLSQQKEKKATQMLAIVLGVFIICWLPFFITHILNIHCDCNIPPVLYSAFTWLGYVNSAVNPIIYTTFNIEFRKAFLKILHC

[12] = target: Dopamine D1 (Homo sapiens, UniProt P21728); experiment: Cerep screen, Dopamine D1; conditions: radioligand binding assays and broad panel screen
Dopamine D1, sequence (P21728 whole entry): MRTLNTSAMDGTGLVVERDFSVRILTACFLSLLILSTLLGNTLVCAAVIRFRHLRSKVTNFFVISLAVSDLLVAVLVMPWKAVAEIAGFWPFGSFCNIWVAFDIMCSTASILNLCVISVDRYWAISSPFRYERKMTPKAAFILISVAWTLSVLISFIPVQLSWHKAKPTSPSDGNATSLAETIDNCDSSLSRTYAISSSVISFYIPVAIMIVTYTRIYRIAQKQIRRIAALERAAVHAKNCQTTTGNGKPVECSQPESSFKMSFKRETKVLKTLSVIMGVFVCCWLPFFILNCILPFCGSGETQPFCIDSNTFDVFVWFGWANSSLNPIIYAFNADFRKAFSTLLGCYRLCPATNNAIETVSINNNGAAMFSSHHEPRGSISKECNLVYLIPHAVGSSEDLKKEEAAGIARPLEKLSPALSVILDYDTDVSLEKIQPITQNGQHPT

[13] = both sexes, human, oral, 80 mg, plasma analyte, NBI-98854 alone
[14] = both sexes, human, oral, plasma analyte, NBI-98854 administered with rifampin
[15] = both sexes, human, plasma, oral, 80 mg
[16] = plasma metabolite NBI-98782, NBI-98854 80 mg + rifampin 600 mg, N = 11, Mean (SD)
[17] = plasma metabolite NBI-98782, NBI-98854 80 mg alone, N = 11, Mean (SD)
[18] = Safety Analysis Set, healthy subjects, by treatment period
[19] = both sexes, human, oral, plasma NBI-98854, NBI-98854 80 mg + rifampin 600 mg, N = 11, Mean (SD)
[20] = both sexes, human, oral, plasma NBI-98854, NBI-98854 80 mg alone, N = 11, Mean (SD)
[21] = plasma analyte, NBI-98854 plus rifampin compared with NBI-98854 alone

## COc1cc2c(cc1OC)[C@H]1C[C@@H](O)[C@H](CC(C)C)CN1CC2 [NBI-98782, (2R, 3R,11bR)-3-isobutyl-9,10-dimethoxy-1,3,4,6,7,11b-hexahydro-2H-pyrido[2,1-a]isoquinolin-2-ol]
[1]; listed as R,R,R-DHTBZ
  inhibition of uptake through VMAT1: no significant inhibitory activity; also recorded: no significant effect
[2]
  increase in serum prolactin levels: induced a similar increase in serum prolactin levels as TBZ
[3]; [13]
  half-life: 19 h
[3]; both sexes, human, oral, 80 mg, plasma analyte, NBI-98854 alone, read-out: Median tmax
  Tmax: 4 h
[3]; [14]
  half-life: 12 h
[3]; both sexes, human, oral, plasma analyte, NBI-98854 plus rifampin, read-out: Median tmax
  Tmax: 3 h
[3]; [15]
  AUC(0-inf): 689 ng·h/mL
  Cmax: 21.5 ng/mL
  MRT: 28 h
[3]; both sexes, human, plasma, oral, 80 mg, plasma metabolite NBI-98782, NBI-98854 80 mg alone, N = 11, Mean (SD), read-out: AUC0-24
  AUC(0-t): 364 ng·h/mL
[3]; both sexes, human, plasma, oral, 80 mg, plasma metabolite NBI-98782, NBI-98854 80 mg alone, N = 11, Mean (SD), read-out: AUC0-tlast
  AUC(0-t): 665 ng·h/mL
[3]; both sexes, human, plasma, oral, plasma metabolite NBI-98782, NBI-98854 80 mg + rifampin 600 mg, N = 11, Mean (SD), read-out: AUC0-24
  AUC(0-t): 115 ng·h/mL
[3]; both sexes, human, plasma, oral, plasma metabolite NBI-98782, NBI-98854 80 mg + rifampin 600 mg, N = 11, Mean (SD), read-out: AUC0-tlast
  AUC(0-t): 153 ng·h/mL
[3]; [16]
  Tlag: 0.23 (0.075) hr
  t1/2: 12 (1.7) hr
[3]; plasma metabolite NBI-98782, NBI-98854 80 mg + rifampin 600 mg, N = 11, Median (min, max)
  Tmax: 3.0 (0.50, 4.0) hr
[3]; [17]
  Tlag: 0.25 (0.16) hr
  t1/2: 19 (2.3) hr
[3]; plasma metabolite NBI-98782, NBI-98854 80 mg alone, N = 11, Median (min, max)
  Tmax: 4.0 (0.52, 18) hr
[4]
  percent of control specific binding, Serotonin 5-HT7: 3%
[5]
  percent of control specific binding, Serotonin 5-HT1A: 17%
[6]
  enzymes involved in oxidative metabolism: mediated primarily by CYP2D6 with contribution from CYP3A4/5
[7]
  affinity for more than 80 binding sites: little to no affinity
[8]
  induction of ptosis: induced ptosis in an equivalent manner

## COc1cc2c(cc1OC)[C@H]1C[C@@H](OC(=O)[C@@H](N)C(C)C)[C@H](CC(C)C)CN1CC2 [NBI-98854, (S)-2-amino-3-methyl-butyric acid (2R, 3R,11bR)-3-isobutyl-9,10-dimethoxy-1,3,4,6,7,11b-hexahydro-2H-pyrido[2,1-a]isoquinolin-2-yl ester]
[1]; listed as VBZ
  inhibition of uptake through VMAT1: no significant inhibitory activity; also recorded: no significant effect
[9]; 80 mg in healthy subjects, alone or concomitantly with rifampin
  Tolerability: well tolerated
[9]; [18]
  Subjects who experienced a TEAE: Overall: 6 (50.0) n (%)
  TEAE: Abdominal pain: 1 (8.3) n (%)
  TEAE: Abdominal pain upper: 0 n (%)
  TEAE: Arthropod bite: 1 (8.3) n (%)
  TEAE: Chromaturia: 0 n (%)
  TEAE: Headache: 3 (25.0) n (%)
  TEAE: Hypoaesthesia: 0 n (%)
  TEAE: Non-cardiac chest pain: 0 n (%)
  TEAE: Paraesthesia: 0 n (%)
  TEAE: Vessel puncture site haemorrhage: 1 (8.3) n (%)
[3]; NBI-98854 80 mg + rifampin 600 mg, N = 11, Mean (SD)
  CL/F: 50.3 (11.4) L/hr
[3]; NBI-98854 80 mg alone, N = 11, Mean (SD)
  CL/F: 13.8 (2.77) L/hr
[3]; [13]
  half-life: 16 h
[3]; [19]
  AUC(0-inf): 1700 ng·h/mL
  Cmax: 542 ng/mL
  MRT: 8.7 h
[3]; both sexes, human, oral, plasma NBI-98854, NBI-98854 80 mg + rifampin 600 mg, N = 11, Median (mm, max), read-out: tmax
  Tmax: 0.75 h
[3]; [20]
  AUC(0-inf): 6020 ng·h/mL
  Cmax: 795 ng/mL
  MRT: 17 h
[3]; both sexes, human, oral, plasma NBI-98854, NBI-98854 80 mg alone, N = 11, Median (mm, max), read-out: tmax
  Tmax: 0.75 h
[3]; [14]
  half-life: 10 h
[3]; both sexes, human, plasma, oral, 80 mg, plasma NBI-98854, NBI-98854 80 mg alone, N = 11, Mean (SD), read-out: AUC0-24
  AUC(0-t): 4480 ng·h/mL
[3]; both sexes, human, plasma, oral, 80 mg, plasma NBI-98854, NBI-98854 80 mg alone, N = 11, Mean (SD), read-out: AUC0-tlast
  AUC(0-t): 5930 ng·h/mL
[3]; both sexes, human, plasma, oral, plasma NBI-98854, NBI-98854 80 mg + rifampin 600 mg, N = 11, Mean (SD), read-out: AUC0-24
  AUC(0-t): 1510 ng·h/mL
[3]; both sexes, human, plasma, oral, plasma NBI-98854, NBI-98854 80 mg + rifampin 600 mg, N = 11, Mean (SD), read-out: AUC0-tlast
  AUC(0-t): 1670 ng·h/mL
[3]; plasma NBI-98854, NBI-98854 80 mg + rifampin 600 mg, N = 11, Mean (SD)
  t1/2: 10 (2.1) hours
[3]; plasma NBI-98854, NBI-98854 80 mg alone, N = 11, Mean (SD)
  t1/2: 16 (2.3) hours
[3]; [21]
  decrease in AUC0-∞: ~70%
  decrease in Cmax: ~30%
[10]
  Affinity Relative to R,R,R-DHTBZ: 45
[10]; n=4
  pKi mean (SEM): 6.82 (0.02)
[4]
  percent of control specific binding, Serotonin 5-HT7: 4%
[5]
  percent of control specific binding, Serotonin 5-HT1A: 26%
[6]
  enzymes involved in oxidative metabolism: CYP3A4/5 is the major enzyme
[7]
  affinity for more than 80 binding sites: little to no affinity
[8]
  induction of ptosis: induced ptosis in an equivalent manner

## COc1cc2c(cc1OC)[C@@H]1C[C@@H](O)[C@@H](CC(C)C)CN1CC2 [R,S,S-DHTBZ]
[11]
  interaction with D2 receptors: interact with D1 and D2 receptors
[12]
  interaction with D1 receptors: interact with D1 and D2 receptors

## COc1cc2c(cc1OC)[C@@H]1C[C@H](O)[C@@H](CC(C)C)CN1CC2 [S,S,S-DHTBZ]
[11]
  interaction with D2 receptors: interact with D1 and D2 receptors
[12]
  interaction with D1 receptors: interact with D1 and D2 receptors
